Article PMC3382171 (PLoS ONE, 2012)

Experiments:
Assay in all cases: biochemical
Design in all cases: Invitrogen SelectScreen kinase panel, percent inhibition at 1 uM, ATP at Km
Details in all cases: read-out: Invitrogen KSS %Inh at 1 µM
[1] = target: PLK3 (Homo sapiens, UniProt Q9H4B4)
Procedure, shortened: (§1)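 Commercial kinase panel screens run with ATP at the Km for each kinase. Compounds tested at 1 µM final concentration; values are % inhibition of phosphorylation relative to control.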

[2] = target: PLK2 (Homo sapiens, UniProt Q9NYY3)
Procedure, shortened: as §1

[3] = target: PRKCZ (PKC zeta) (Homo sapiens, UniProt Q05513)
Procedure, shortened: as §1

[4] = target: EEF2K (Homo sapiens, UniProt O00418)
Procedure, shortened: as §1

[5] = target: PRKCG (PKC gamma) (Homo sapiens, UniProt P05129)
Procedure, shortened: as §1

[6] = target: CLK1 (Homo sapiens, UniProt P49759)
Procedure, shortened: as §1

[7] = target: ZAP70 (Homo sapiens, UniProt P43403)
Procedure, shortened: as §1

[8] = target: AKT2 (PKB beta) (Homo sapiens, UniProt P31751)
Procedure, shortened: as §1

[9] = target: CDK1/cyclinB (Homo sapiens, UniProt P06493)
Procedure, shortened: as §1

[10] = target: SYK (Homo sapiens, UniProt P43405)
Procedure, shortened: as §1

[11] = target: PTK2 (FAK) (Homo sapiens, UniProt Q05397)
Procedure, shortened: as §1

[12] = target: FRAP1 (mTOR) (Homo sapiens, UniProt P42345)
Procedure, shortened: as §1

[13] = target: MARK1 (Homo sapiens, UniProt Q9P0L2)
Procedure, shortened: as §1

[14] = target: ACVR1B (ALK4) (Homo sapiens, UniProt P36896)
Procedure, shortened: as §1

[15] = target: BTK (Homo sapiens, UniProt Q06187)
Procedure, shortened: as §1

[16] = target: SGKL (SGK3) (Homo sapiens, UniProt Q96BR1)
Procedure, shortened: as §1

[17] = target: NTRK2 (TRKB) (Homo sapiens, UniProt Q16620)
Procedure, shortened: as §1

[18] = target: T1, LYN A (Homo sapiens, UniProt P07948)
T1 construct: isoform A
Procedure, shortened: as §1

[19] = target: MAPK8 (JNK1) (Homo sapiens, UniProt P45983)
Procedure, shortened: as §1

[20] = target: MYLK2 (skMLCK) (Homo sapiens, UniProt Q9H1R3)
Procedure, shortened: as §1

[21] = target: EGFR (ErbB1) L861Q (Homo sapiens, UniProt P00533, L861Q)
Procedure, shortened: as §1

[22] = target: CDK2/CyclinA (Homo sapiens, UniProt P24941)
Procedure, shortened: as §1

EGFR (ErbB1) L861Q, sequence (P00533 whole entry L861Q): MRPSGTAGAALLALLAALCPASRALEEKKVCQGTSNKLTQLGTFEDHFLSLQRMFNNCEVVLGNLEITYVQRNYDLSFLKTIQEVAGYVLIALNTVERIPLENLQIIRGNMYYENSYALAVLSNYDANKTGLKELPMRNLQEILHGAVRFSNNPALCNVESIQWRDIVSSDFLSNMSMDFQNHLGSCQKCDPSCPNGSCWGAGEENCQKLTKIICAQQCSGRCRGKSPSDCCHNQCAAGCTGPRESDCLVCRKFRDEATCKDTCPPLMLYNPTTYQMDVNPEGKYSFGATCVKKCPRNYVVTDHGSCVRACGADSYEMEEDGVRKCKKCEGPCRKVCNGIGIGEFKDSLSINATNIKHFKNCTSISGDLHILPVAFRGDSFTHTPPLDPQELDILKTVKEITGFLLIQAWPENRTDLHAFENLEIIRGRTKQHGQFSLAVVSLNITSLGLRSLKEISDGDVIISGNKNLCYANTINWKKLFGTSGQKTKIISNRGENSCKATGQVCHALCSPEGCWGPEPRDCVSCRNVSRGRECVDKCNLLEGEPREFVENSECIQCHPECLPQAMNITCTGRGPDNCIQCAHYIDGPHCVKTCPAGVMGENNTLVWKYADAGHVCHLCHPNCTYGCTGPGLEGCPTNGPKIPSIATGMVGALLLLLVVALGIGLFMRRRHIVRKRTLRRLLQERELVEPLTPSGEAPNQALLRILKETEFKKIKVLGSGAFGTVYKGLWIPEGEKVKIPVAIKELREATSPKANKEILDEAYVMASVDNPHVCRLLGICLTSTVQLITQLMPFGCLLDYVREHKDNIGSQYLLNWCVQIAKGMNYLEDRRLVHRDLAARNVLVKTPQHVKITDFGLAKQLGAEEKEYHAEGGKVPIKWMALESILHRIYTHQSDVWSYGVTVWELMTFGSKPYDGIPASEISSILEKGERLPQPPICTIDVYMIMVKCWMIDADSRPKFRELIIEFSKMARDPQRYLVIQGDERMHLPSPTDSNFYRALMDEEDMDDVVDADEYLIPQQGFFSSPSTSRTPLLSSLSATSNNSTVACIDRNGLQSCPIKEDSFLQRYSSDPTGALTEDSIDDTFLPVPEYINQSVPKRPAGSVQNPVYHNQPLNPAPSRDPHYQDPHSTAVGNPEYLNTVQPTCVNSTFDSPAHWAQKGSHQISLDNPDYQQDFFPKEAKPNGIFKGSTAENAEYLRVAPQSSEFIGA
BTK, sequence (Q06187 whole entry): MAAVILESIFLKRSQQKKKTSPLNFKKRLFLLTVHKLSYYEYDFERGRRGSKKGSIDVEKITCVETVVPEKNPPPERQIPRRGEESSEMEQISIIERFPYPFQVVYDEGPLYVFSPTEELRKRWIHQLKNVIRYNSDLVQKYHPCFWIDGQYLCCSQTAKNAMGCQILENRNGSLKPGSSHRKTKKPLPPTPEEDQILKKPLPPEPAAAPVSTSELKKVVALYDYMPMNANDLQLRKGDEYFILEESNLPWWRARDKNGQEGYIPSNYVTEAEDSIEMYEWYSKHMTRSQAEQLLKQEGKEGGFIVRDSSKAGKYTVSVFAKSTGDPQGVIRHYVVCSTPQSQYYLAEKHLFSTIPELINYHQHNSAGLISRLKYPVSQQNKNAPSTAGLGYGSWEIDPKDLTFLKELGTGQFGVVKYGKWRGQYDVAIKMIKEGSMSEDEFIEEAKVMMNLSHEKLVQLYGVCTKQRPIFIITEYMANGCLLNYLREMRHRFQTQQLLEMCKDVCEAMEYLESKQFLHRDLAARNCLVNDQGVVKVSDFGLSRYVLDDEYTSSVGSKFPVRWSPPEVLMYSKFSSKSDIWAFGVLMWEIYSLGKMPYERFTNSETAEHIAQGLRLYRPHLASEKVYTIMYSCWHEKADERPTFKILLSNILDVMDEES
ZAP70, sequence (P43403 whole entry): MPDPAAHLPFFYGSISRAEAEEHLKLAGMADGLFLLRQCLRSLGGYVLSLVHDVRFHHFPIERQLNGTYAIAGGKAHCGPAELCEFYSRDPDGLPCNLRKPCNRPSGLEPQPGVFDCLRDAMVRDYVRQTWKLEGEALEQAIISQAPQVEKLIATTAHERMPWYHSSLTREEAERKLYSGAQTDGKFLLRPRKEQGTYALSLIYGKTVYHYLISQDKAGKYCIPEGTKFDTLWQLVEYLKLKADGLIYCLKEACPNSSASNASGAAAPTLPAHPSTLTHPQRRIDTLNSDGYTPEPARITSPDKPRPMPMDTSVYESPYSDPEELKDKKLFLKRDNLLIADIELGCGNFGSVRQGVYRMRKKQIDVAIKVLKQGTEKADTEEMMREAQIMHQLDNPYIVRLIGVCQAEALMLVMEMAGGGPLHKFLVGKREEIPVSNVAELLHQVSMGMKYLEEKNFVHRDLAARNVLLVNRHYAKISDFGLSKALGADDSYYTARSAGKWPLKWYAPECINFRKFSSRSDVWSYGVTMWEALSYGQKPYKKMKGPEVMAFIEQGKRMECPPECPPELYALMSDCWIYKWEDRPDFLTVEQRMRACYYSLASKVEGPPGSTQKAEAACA
SGKL (SGK3), sequence (Q96BR1 whole entry): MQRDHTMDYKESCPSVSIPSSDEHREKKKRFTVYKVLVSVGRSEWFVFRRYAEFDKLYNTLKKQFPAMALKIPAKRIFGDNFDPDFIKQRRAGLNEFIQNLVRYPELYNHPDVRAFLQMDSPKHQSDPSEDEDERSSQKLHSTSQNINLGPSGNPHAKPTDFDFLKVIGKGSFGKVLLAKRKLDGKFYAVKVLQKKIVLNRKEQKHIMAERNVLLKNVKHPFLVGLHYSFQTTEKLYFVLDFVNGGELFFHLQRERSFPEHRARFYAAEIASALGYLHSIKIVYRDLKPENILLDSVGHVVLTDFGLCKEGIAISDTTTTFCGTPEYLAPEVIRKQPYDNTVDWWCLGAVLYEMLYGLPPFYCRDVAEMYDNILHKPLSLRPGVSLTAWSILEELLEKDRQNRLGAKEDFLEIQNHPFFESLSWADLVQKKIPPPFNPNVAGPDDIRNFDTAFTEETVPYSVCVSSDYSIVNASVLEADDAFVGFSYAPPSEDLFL
PLK3, sequence (Q9H4B4 whole entry): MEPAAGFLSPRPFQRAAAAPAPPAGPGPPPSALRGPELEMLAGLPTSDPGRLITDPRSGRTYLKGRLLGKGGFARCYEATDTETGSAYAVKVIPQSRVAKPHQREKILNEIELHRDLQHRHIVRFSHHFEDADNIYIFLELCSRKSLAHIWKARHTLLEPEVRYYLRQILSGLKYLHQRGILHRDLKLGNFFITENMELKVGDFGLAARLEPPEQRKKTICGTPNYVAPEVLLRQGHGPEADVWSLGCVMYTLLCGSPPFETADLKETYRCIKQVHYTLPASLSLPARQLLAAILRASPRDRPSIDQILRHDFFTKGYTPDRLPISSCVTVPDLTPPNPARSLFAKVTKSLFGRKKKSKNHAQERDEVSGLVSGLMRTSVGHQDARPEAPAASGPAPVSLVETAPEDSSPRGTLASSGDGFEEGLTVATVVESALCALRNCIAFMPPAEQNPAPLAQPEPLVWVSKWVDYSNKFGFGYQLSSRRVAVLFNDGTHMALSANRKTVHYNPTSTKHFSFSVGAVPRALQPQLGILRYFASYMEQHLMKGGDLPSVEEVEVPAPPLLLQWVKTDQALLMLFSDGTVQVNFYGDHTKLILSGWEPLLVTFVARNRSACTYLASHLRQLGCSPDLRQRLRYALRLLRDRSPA
NTRK2 (TRKB), sequence (Q16620 whole entry): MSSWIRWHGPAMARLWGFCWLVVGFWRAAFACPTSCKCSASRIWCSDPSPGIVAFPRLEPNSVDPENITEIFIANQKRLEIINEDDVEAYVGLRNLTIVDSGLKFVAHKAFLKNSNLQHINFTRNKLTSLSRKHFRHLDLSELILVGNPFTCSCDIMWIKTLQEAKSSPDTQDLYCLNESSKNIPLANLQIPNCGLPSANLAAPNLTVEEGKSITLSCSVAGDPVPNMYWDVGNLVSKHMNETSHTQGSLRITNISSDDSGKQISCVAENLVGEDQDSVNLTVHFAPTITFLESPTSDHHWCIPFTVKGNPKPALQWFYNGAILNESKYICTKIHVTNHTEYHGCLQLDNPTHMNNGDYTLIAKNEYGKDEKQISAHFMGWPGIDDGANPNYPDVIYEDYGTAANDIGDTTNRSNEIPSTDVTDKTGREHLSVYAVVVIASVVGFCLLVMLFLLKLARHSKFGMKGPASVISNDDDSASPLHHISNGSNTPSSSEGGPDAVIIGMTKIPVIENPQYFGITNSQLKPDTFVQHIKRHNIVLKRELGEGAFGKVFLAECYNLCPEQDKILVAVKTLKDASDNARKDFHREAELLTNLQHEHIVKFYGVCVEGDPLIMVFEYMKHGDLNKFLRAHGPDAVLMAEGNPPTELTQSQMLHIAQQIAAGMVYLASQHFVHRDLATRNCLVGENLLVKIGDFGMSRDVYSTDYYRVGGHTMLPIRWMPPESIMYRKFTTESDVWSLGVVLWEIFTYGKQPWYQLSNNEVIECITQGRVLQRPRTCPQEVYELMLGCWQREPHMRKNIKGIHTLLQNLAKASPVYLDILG
T1 sequence (P07948 whole entry, canonical isoform): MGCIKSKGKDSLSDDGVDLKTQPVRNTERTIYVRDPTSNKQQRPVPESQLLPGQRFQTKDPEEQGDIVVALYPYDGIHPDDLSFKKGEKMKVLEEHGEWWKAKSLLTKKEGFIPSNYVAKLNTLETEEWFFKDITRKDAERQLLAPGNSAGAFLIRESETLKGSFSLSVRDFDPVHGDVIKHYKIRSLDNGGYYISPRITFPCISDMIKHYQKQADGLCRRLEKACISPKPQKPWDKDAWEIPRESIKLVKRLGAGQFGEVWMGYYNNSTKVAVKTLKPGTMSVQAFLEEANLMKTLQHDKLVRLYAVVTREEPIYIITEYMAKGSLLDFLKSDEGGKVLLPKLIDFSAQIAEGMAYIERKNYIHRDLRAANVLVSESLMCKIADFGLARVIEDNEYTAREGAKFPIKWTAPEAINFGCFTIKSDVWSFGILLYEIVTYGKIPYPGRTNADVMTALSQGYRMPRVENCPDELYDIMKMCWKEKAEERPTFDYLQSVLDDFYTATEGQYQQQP

inhibition at 1 µM [1]: 4%
inhibition at 1 µM [2]: 37%
inhibition at 1 µM [3]: -7%
inhibition at 1 µM [4]: 14%
inhibition at 1 µM [5]: -15%
inhibition at 1 µM [6]: 1%
inhibition at 1 µM [7]: 3%
inhibition at 1 µM [8]: 6%
inhibition at 1 µM [9]: -1%
inhibition at 1 µM [10]: -35%
inhibition at 1 µM [11]: 12%
inhibition at 1 µM [12]: -7%
inhibition at 1 µM [13]: 2%
inhibition at 1 µM [14]: 7%
inhibition at 1 µM [15]: -7%
inhibition at 1 µM [16]: -1%
inhibition at 1 µM [17]: 23%
inhibition at 1 µM [18]: 2%
inhibition at 1 µM [19]: 31%
inhibition at 1 µM [20]: 20%
inhibition at 1 µM [21]: 5%
inhibition at 1 µM [22]: 18%
SMILES: N#CCCNc1nccc(-c2cn(CC(F)F)nc2-c2cnc3[nH]ccc3c2)n1 [RAFi, PF-04880594]
